Assay results taken from PubChem BioAssay AID1117344.
Active and inactive are the calls of the source. No rule for the calls is given here.

Tested on: NCI-H716 cells, GLP-1 secretion
Assay: potency on glucagon-like peptide-1 release, NCI-H716 cell line, dose-response curve, half-maximal inhibitory concentration (AID 1117344)

Structure (SMILES)	IC50
Cc1ccc([N+](=O)[O-])[c]2c1[O][Hg]2	9.87 µM (inactive)
CCCCCCCCCCCC(=O)[O][Sn]([CH2]CCC)([CH2]CCC)[O]C(=O)CCCCCCCCCCC	> 40 µM (inactive)
CC(=O)[O][Hg][c]1ccccc1	9.57 µM (inactive)
CCCCCCCCCCCCCC[N+](C)(C)C	18.6 µM (inactive)
OCCN1CCN(CC/C=C2/c3ccccc3Sc3ccc(C(F)(F)F)cc32)CC1	32.2 µM (inactive)
